Tests used:
Assay in all cases: Test E greenhouse herbicide test, pre- and postemergence
Format in all cases: in vivo
[1] = test system: velvetleaf (Abutilon theophrasti); details: Preemergence
Procedure, shortened: (§1)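 Greenhouse pots; preemergence on silt loam, postemergence on plants 1- to 4-leaf (2 to 18 cm) grown in peat, vermiculite and nutrient medium. Test chemicals formulated in non-phytotoxic solvent with surfactant. Ratings taken after 14 to 21 d.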

[2] = test system: ragweed (common ragweed, Ambrosia elatior)
Procedure, shortened: as §1

soybean (Glycine max) = test system: soybean (Glycine max)
Procedure, shortened: as §1

[3] = test system: beggarticks (hairy beggarticks, Bidens pilosa)
Procedure, shortened: as §1

[4] = test system: nightshade (eastern black nightshade, Solanum ptycanthum); details: Preemergence
Procedure, shortened: as §1

kochia (Kochia scoparia) = test system: kochia (Kochia scoparia)
Procedure, shortened: as §1

corn (Zea mays) = test system: corn (Zea mays)
Procedure, shortened: as §1

[5] = test system: johnsongrass (Sorghum halepense); details: Preemergence
Procedure, shortened: as §1

[6] = test system: goosegrass (Eleusine indica); details: Preemergence
Procedure, shortened: as §1

[7] = test system: arrowleaf sida (Sida rhombifolia)
Procedure, shortened: as §1

[8] = test system: surinam grass (Brachiaria decumbens); details: Preemergence
Procedure, shortened: as §1

[9] = test system: panicum, fall (fall panicum, Panicum dichotomiflorum)
Procedure, shortened: as §1

[10] = test system: crabgrass, Brazilian (Brazilian crabgrass, Digitaria horizontalis)
Procedure, shortened: as §1

[11] = test system: lambsquarters (Chenopodium album); details: Preemergence
Procedure, shortened: as §1

[12] = test system: foxtail, giant (giant foxtail, Setaria faberii); details: Preemergence
Procedure, shortened: as §1

[13] = test system: pigweed, palmer (palmer pigweed, Amaranthus palmeri)
Procedure, shortened: as §1

[14] = test system: sandbur (southem sandbur, Cenchrus echinatus)
Procedure, shortened: as §1

[15] = 62 g ai/ha, scale 0 to 100 (0 no effect, 100 complete control)
[16] = 125 g ai/ha, scale 0 to 100 (0 no effect, 100 complete control)
[17] = 31 g ai/ha, scale 0 to 100, 0 no effect, 100 complete control
[18] = 250 g ai/ha, visual, scale 0 no effect to 100 complete control
[19] = 62 g ai/ha, Postemergence, scale 0 to 100 (0 no effect, 100 complete control)
[20] = 62 g ai/ha, Preemergence, scale 0 to 100 (0 no effect, 100 complete control)
[21] = 125 g ai/ha, Postemergence, scale 0 to 100 (0 no effect, 100 complete control)
[22] = 125 g ai/ha, Preemergence, scale 0 to 100 (0 no effect, 100 complete control)
[23] = 250 g ai/ha, Postemergence, scale 0 to 100 (0 no effect, 100 complete control)
[24] = Postemergence, 31 g ai/ha, visual, scale 0 no effect to 100 complete control
[25] = Preemergence, 31 g ai/ha, scale 0 to 100, 0 no effect, 100 complete control
[26] = Preemergence, 250 g ai/ha, visual, scale 0 no effect to 100 complete control

## Cc1cc(C)c2sc(C)c(-c3c(OC(=O)OCCCl)c(C)nn(C)c3=O)c2c1 [Compound 85]
[1]; [15]
  Plant response rating, Velvetleaf: 30
[1]; [16]
  Plant response rating, Velvetleaf: 70
[1]; [17]
  Plant response rating, Velvetleaf: 0
[1]; [18]
  Plant response rating, Velvetleaf: 95
[2]; [19]
  Plant response rating, Ragweed: 50
[2]; [20]
  Plant response rating, Ragweed: 80
[2]; [21]
  Plant response rating, Ragweed: 60
[2]; [22]
  Plant response rating, Ragweed: 90
[2]; [23]
  Plant response rating, Ragweed: 85
[2]; [24]
  Plant response rating, Ragweed: 50
[2]; [25]
  Plant response rating, Ragweed: 60
[2]; [26]
  Plant response rating, Ragweed: 98
Soybean (Glycine max); [20]
  Plant response rating, Soybean: 0
Soybean (Glycine max); [21]
  Plant response rating, Soybean: 5
Soybean (Glycine max); [22]
  Plant response rating, Soybean: 0
Soybean (Glycine max); [23]
  Plant response rating, Soybean: 15
Soybean (Glycine max); [24]
  Plant response rating, Soybean: 0
Soybean (Glycine max); [25]
  Plant response rating, Soybean: 0
Soybean (Glycine max); [26]
  Plant response rating, Soybean: 0
[3]; [19]
  Plant response rating, Beggarticks: 100
[3]; [20]
  Plant response rating, Beggarticks: 100
[3]; [21]
  Plant response rating, Beggarticks: 100
[3]; [22]
  Plant response rating, Beggarticks: 100
[3]; [23]
  Plant response rating, Beggarticks: 100
[3]; [24]
  Plant response rating, Beggarticks: 90
[3]; [25]
  Plant response rating, Beggarticks: 90
[3]; [26]
  Plant response rating, Beggarticks: 100
[4]; [15]
  Plant response rating, Nightshade: 95
[4]; [16]
  Plant response rating, Nightshade: 100
[4]; [17]
  Plant response rating, Nightshade: 95
[4]; [18]
  Plant response rating, Nightshade: 100
Kochia (Kochia scoparia); [19]
  Plant response rating, Kochia: 70
Kochia (Kochia scoparia); [20]
  Plant response rating, Kochia: 0
Kochia (Kochia scoparia); [21]
  Plant response rating, Kochia: 80
Kochia (Kochia scoparia); [22]
  Plant response rating, Kochia: 0
Kochia (Kochia scoparia); [23]
  Plant response rating, Kochia: 80
Kochia (Kochia scoparia); [24]
  Plant response rating, Kochia: 60
Kochia (Kochia scoparia); [25]
  Plant response rating, Kochia: 0
Kochia (Kochia scoparia); [26]
  Plant response rating, Kochia: 98
Corn (Zea mays); [19]
  Plant response rating, Corn: 0
Corn (Zea mays); [20]
  Plant response rating, Corn: 0
Corn (Zea mays); [21]
  Plant response rating, Corn: 0
Corn (Zea mays); [22]
  Plant response rating, Corn: 0
Corn (Zea mays); [23]
  Plant response rating, Corn: 5
Corn (Zea mays); [24]
  Plant response rating, Corn: 0
Corn (Zea mays); [25]
  Plant response rating, Corn: 0
Corn (Zea mays); [26]
  Plant response rating, Corn: 0
[5]; [15]
  Plant response rating, Johnsongrass: 0
[5]; [16]
  Plant response rating, Johnsongrass: 0
[5]; [17]
  Plant response rating, Johnsongrass: 0
[5]; [18]
  Plant response rating, Johnsongrass: 0
[6]; [15]
  Plant response rating, Goosegrass: 5
[6]; [16]
  Plant response rating, Goosegrass: 5
[6]; [17]
  Plant response rating, Goosegrass: 5
[6]; [18]
  Plant response rating, Goosegrass: 20
[7]; [19]
  Plant response rating, Arrowleaf Sida: 50
[7]; [20]
  Plant response rating, Arrowleaf Sida: 0
[7]; [21]
  Plant response rating, Arrowleaf Sida: 50
[7]; [22]
  Plant response rating, Arrowleaf Sida: 50
[7]; [23]
  Plant response rating, Arrowleaf Sida: 50
[7]; [24]
  Plant response rating, Arrowleaf Sida: 40
[7]; [25]
  Plant response rating, Arrowleaf Sida: 0
[7]; [26]
  Plant response rating, Arrowleaf Sida: 70
[8]; [15]
  Plant response rating, Surinam Grass: 70
[8]; [16]
  Plant response rating, Surinam Grass: 70
[8]; [17]
  Plant response rating, Surinam Grass: 60
[8]; [18]
  Plant response rating, Surinam Grass: 90
[9]; [19]
  Plant response rating, Panicum, Fall: 75
[9]; [20]
  Plant response rating, Panicum, Fall: 85
[9]; [21]
  Plant response rating, Panicum, Fall: 80
[9]; [22]
  Plant response rating, Panicum, Fall: 98
[9]; [23]
  Plant response rating, Panicum, Fall: 95
[9]; [24]
  Plant response rating, Panicum, Fall: 75
[9]; [25]
  Plant response rating, Panicum, Fall: 95
[9]; [26]
  Plant response rating, Panicum, Fall: 100
[10]; [19]
  Plant response rating, Crabgrass, Brazil: 30
[10]; [20]
  Plant response rating, Crabgrass, Brazil: 50
[10]; [21]
  Plant response rating, Crabgrass, Brazil: 50
[10]; [22]
  Plant response rating, Crabgrass, Brazil: 80
[10]; [23]
  Plant response rating, Crabgrass, Brazil: 50
[10]; [24]
  Plant response rating, Crabgrass, Brazil: 15
[10]; [25]
  Plant response rating, Crabgrass, Brazil: 10
[10]; [26]
  Plant response rating, Crabgrass, Brazil: 90
[11]; [15]
  Plant response rating, Lambsquarters: 100
[11]; [16]
  Plant response rating, Lambsquarters: 100
[11]; [17]
  Plant response rating, Lambsquarters: 70
[11]; [18]
  Plant response rating, Lambsquarters: 100
[12]; [15]
  Plant response rating, Foxtail, Giant: 65
[12]; [16]
  Plant response rating, Foxtail, Giant: 95
[12]; [17]
  Plant response rating, Foxtail, Giant: 15
[12]; [18]
  Plant response rating, Foxtail, Giant: 100
[13]; [19]
  Plant response rating, Pigweed, Palmer: 80
[13]; [20]
  Plant response rating, Pigweed, Palmer: 30
[13]; [21]
  Plant response rating, Pigweed, Palmer: 80
[13]; [22]
  Plant response rating, Pigweed, Palmer: 50
[13]; [23]
  Plant response rating, Pigweed, Palmer: 80
[13]; [24]
  Plant response rating, Pigweed, Palmer: 65
[13]; [25]
  Plant response rating, Pigweed, Palmer: 25
[13]; [26]
  Plant response rating, Pigweed, Palmer: 90
[14]; [20]
  Plant response rating, Sandbur: 50
[14]; [21]
  Plant response rating, Sandbur: 70
[14]; [22]
  Plant response rating, Sandbur: 80
[14]; [23]
  Plant response rating, Sandbur: 70
[14]; [24]
  Plant response rating, Sandbur: 40
[14]; [25]
  Plant response rating, Sandbur: 0
[14]; [26]
  Plant response rating, Sandbur: 90

## C#CCOC(=O)Oc1c(C)nn(C)c(=O)c1-c1c(C)sc2ccc(C)cc12 [Compound 87]
[1]; [15]
  Plant response rating, Velvetleaf: 60
[1]; [16]
  Plant response rating, Velvetleaf: 90
[1]; [17]
  Plant response rating, Velvetleaf: 0
[1]; [18]
  Plant response rating, Velvetleaf: 95
[2]; [20]
  Plant response rating, Ragweed: 95
[2]; [22]
  Plant response rating, Ragweed: 98
[2]; [25]
  Plant response rating, Ragweed: 98
[2]; [26]
  Plant response rating, Ragweed: 100
Soybean (Glycine max); [20]
  Plant response rating, Soybean: 0
Soybean (Glycine max); [22]
  Plant response rating, Soybean: 0
Soybean (Glycine max); [25]
  Plant response rating, Soybean: 0
Soybean (Glycine max); [26]
  Plant response rating, Soybean: 0
[3]; [20]
  Plant response rating, Beggarticks: 100
[3]; [22]
  Plant response rating, Beggarticks: 100
[3]; [25]
  Plant response rating, Beggarticks: 90
[3]; [26]
  Plant response rating, Beggarticks: 100
[4]; [15]
  Plant response rating, Nightshade: 90
[4]; [16]
  Plant response rating, Nightshade: 98
[4]; [17]
  Plant response rating, Nightshade: 50
[4]; [18]
  Plant response rating, Nightshade: 98
Kochia (Kochia scoparia); [20]
  Plant response rating, Kochia: 100
Kochia (Kochia scoparia); [22]
  Plant response rating, Kochia: 100
Kochia (Kochia scoparia); [25]
  Plant response rating, Kochia: 65
Kochia (Kochia scoparia); [26]
  Plant response rating, Kochia: 100
Corn (Zea mays); [20]
  Plant response rating, Corn: 0
Corn (Zea mays); [22]
  Plant response rating, Corn: 20
Corn (Zea mays); [25]
  Plant response rating, Corn: 0
Corn (Zea mays); [26]
  Plant response rating, Corn: 15
[5]; [15]
  Plant response rating, Johnsongrass: 65
[5]; [16]
  Plant response rating, Johnsongrass: 70
[5]; [18]
  Plant response rating, Johnsongrass: 75
[6]; [15]
  Plant response rating, Goosegrass: 0
[6]; [16]
  Plant response rating, Goosegrass: 60
[6]; [17]
  Plant response rating, Goosegrass: 0
[6]; [18]
  Plant response rating, Goosegrass: 75
[7]; [20]
  Plant response rating, Arrowleaf Sida: 60
[7]; [22]
  Plant response rating, Arrowleaf Sida: 70
[7]; [25]
  Plant response rating, Arrowleaf Sida: 0
[7]; [26]
  Plant response rating, Arrowleaf Sida: 80
[8]; [15]
  Plant response rating, Surinam Grass: 15
[8]; [16]
  Plant response rating, Surinam Grass: 80
[8]; [17]
  Plant response rating, Surinam Grass: 10
[8]; [18]
  Plant response rating, Surinam Grass: 75
[9]; [20]
  Plant response rating, Panicum, Fall: 90
[9]; [22]
  Plant response rating, Panicum, Fall: 100
[9]; [25]
  Plant response rating, Panicum, Fall: 95
[9]; [26]
  Plant response rating, Panicum, Fall: 98
[10]; [20]
  Plant response rating, Crabgrass, Brazil: 80
[10]; [22]
  Plant response rating, Crabgrass, Brazil: 90
[10]; [25]
  Plant response rating, Crabgrass, Brazil: 60
[10]; [26]
  Plant response rating, Crabgrass, Brazil: 100
[11]; [15]
  Plant response rating, Lambsquarters: 100
[11]; [16]
  Plant response rating, Lambsquarters: 100
[11]; [17]
  Plant response rating, Lambsquarters: 100
[11]; [18]
  Plant response rating, Lambsquarters: 100
[12]; [15]
  Plant response rating, Foxtail, Giant: 65
[12]; [16]
  Plant response rating, Foxtail, Giant: 70
[12]; [17]
  Plant response rating, Foxtail, Giant: 25
[12]; [18]
  Plant response rating, Foxtail, Giant: 95
[13]; [20]
  Plant response rating, Pigweed, Palmer: 65
[13]; [22]
  Plant response rating, Pigweed, Palmer: 75
[13]; [25]
  Plant response rating, Pigweed, Palmer: 0
[13]; [26]
  Plant response rating, Pigweed, Palmer: 90
[14]; [20]
  Plant response rating, Sandbur: 65
[14]; [22]
  Plant response rating, Sandbur: 75
[14]; [25]
  Plant response rating, Sandbur: 25
[14]; [26]
  Plant response rating, Sandbur: 85
